Assay results from the kinase profiling compilation of Christmann-Franck et al. (2016).

Key:
[1] = molecular target: MTOR (human) (UniProt P42345)
[2] = test system: AKT2 (human), P31751 [S474D]
[3] = molecular target: HIPK1 (human) (UniProt Q86Z02)
[4] = molecular target: MARK2 (human) (UniProt Q7KZI7)
[5] = molecular target: RIPK2 (human) (UniProt O43353)
[6] = test system: ABL1 (human), P00519 [Y253F]; assay: KINOMEscan competition binding; conditions: compound 10.0 µM
[7] = test system: EGFR (human), P00533 [G719S]; assay: KINOMEscan competition binding; conditions: compound 10.0 µM
[8] = test system: EGFR (human), P00533 [L861Q]; assay: KINOMEscan competition binding; conditions: compound 10.0 µM
[9] = test system: EGFR (human), P00533 [746-750 del]; assay: KINOMEscan competition binding; conditions: compound 10.0 µM
[10] = test system: ABL1 (human), P00519 [E255K]; assay: KINOMEscan competition binding; conditions: compound 10.0 µM
[11] = test system: EGFR (human), P00533 [G719C]; assay: KINOMEscan competition binding; conditions: compound 10.0 µM
[12] = test system: PIK3CA (human), P42336 [H1047Y]; assay: KINOMEscan competition binding; conditions: compound 10.0 µM
Sequence of PIK3CA (human), P42336 [H1047Y] (P42336 whole entry H1047Y, looked up): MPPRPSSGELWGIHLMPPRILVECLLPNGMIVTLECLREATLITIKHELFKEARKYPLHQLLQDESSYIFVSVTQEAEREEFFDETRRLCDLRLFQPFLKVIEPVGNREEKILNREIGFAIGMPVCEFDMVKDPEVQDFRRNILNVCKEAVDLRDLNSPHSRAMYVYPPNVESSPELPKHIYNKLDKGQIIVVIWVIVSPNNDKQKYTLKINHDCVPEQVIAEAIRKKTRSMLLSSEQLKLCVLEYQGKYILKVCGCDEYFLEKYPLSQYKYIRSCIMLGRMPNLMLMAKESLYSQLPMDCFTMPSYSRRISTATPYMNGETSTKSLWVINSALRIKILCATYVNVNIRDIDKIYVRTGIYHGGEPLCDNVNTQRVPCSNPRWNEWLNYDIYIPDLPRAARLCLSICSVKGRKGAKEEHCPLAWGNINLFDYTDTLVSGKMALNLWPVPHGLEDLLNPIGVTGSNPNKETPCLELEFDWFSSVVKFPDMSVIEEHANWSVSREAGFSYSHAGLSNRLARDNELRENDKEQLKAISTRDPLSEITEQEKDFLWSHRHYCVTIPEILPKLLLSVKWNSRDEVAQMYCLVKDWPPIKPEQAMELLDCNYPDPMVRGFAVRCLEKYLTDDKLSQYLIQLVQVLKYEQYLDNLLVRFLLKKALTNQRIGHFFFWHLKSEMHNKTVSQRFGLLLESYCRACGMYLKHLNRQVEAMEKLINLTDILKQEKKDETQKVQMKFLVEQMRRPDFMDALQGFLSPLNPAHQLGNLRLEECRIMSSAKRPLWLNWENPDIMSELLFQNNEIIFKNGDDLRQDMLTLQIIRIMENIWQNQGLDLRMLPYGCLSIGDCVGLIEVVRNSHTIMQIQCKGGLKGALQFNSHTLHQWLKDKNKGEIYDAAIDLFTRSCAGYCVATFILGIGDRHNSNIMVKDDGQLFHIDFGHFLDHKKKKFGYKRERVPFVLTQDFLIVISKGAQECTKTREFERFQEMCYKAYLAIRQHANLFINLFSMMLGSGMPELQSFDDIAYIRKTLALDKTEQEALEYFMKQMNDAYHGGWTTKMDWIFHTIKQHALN

[13] = molecular target: PIK3CG (human) (UniProt P48736); assay: KINOMEscan competition binding; conditions: compound 10.0 µM
[14] = molecular target: MARK2 (human) (UniProt Q7KZI7); assay: KINOMEscan competition binding; conditions: compound 10.0 µM
[15] = test system: EGFR (human), P00533 [P753S; 747-752 del]; assay: KINOMEscan competition binding; conditions: compound 10.0 µM
[16] = test system: KIT (human), P10721 [V559D/V654A]; assay: KINOMEscan competition binding; conditions: compound 10.0 µM
Sequence of KIT (human), P10721 [V559D/V654A] (P10721 whole entry V559D/V654A, looked up): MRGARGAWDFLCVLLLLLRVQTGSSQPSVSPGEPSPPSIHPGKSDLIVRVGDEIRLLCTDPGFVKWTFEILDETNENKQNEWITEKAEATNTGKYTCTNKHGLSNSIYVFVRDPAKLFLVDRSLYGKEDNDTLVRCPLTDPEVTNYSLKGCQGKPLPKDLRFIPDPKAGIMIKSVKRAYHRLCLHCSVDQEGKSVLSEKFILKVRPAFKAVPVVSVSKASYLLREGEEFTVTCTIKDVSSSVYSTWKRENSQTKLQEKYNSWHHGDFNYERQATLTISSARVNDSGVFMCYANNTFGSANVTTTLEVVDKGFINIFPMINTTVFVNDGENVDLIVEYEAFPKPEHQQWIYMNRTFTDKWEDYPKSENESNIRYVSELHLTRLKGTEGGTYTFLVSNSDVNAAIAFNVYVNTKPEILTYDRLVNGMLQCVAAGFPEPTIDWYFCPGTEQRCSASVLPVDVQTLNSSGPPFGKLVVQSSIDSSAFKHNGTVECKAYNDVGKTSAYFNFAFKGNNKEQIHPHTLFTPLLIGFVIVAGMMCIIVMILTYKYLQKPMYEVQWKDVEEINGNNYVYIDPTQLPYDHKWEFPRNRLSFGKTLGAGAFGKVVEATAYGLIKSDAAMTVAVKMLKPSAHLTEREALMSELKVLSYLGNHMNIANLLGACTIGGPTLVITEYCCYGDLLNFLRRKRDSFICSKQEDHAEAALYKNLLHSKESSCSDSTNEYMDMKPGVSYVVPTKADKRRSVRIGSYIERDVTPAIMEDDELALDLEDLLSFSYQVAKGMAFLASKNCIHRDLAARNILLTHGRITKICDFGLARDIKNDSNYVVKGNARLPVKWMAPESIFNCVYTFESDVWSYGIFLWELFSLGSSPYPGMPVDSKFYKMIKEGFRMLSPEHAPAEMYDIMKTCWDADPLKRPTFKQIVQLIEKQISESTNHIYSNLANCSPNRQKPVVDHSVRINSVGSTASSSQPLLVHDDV

[17] = molecular target: PIK3CA (human) (UniProt P42336); assay: KINOMEscan competition binding; conditions: compound 10.0 µM
[18] = test system: ABL1 (human), P00519 [F317I]; assay: KINOMEscan competition binding; conditions: compound 10.0 µM
[19] = test system: ABL1 (human), P00519 [F317L]; assay: KINOMEscan competition binding; conditions: compound 10.0 µM
[20] = test system: ABL1 (human), P00519 [H396P]; assay: KINOMEscan competition binding; conditions: compound 10.0 µM
[21] = molecular target: ABL1 (human) (UniProt P00519); assay: KINOMEscan competition binding; conditions: compound 10.0 µM
[22] = molecular target: MYLK3 (human) (UniProt Q32MK0)

Sequence of HIPK1 (human) (Q86Z02 whole entry, looked up): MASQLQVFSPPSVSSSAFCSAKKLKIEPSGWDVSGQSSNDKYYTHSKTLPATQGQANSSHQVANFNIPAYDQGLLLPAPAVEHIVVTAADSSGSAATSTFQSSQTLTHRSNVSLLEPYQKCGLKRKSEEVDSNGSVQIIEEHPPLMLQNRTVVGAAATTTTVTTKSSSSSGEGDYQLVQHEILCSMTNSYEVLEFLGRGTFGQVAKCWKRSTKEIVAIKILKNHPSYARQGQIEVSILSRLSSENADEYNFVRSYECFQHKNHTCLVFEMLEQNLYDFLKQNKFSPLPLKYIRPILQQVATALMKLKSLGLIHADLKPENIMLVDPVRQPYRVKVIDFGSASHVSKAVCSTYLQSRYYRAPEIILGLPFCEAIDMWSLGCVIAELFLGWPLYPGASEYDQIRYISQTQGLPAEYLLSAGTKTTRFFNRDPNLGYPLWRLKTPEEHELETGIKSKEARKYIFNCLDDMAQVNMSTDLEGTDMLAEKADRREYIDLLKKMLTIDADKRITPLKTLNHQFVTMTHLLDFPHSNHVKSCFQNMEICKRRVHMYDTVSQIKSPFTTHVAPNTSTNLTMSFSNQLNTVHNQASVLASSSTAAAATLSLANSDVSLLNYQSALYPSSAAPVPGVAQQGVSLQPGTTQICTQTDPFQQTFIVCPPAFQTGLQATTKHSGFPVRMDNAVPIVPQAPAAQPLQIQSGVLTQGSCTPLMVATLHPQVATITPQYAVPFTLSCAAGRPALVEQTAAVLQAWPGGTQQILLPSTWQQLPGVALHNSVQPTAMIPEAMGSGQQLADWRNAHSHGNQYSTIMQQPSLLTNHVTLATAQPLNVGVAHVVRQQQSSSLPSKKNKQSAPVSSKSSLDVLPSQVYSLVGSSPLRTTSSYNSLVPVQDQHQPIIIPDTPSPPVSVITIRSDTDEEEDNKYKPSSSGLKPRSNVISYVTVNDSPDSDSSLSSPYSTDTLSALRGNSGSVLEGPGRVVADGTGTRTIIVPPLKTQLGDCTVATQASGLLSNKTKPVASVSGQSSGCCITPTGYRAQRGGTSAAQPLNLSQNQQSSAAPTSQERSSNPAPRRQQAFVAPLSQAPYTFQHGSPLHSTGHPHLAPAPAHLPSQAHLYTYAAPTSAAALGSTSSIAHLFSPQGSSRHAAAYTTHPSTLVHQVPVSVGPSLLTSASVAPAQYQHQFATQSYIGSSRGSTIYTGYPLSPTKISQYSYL
Sequence of RIPK2 (human) (O43353 whole entry, looked up): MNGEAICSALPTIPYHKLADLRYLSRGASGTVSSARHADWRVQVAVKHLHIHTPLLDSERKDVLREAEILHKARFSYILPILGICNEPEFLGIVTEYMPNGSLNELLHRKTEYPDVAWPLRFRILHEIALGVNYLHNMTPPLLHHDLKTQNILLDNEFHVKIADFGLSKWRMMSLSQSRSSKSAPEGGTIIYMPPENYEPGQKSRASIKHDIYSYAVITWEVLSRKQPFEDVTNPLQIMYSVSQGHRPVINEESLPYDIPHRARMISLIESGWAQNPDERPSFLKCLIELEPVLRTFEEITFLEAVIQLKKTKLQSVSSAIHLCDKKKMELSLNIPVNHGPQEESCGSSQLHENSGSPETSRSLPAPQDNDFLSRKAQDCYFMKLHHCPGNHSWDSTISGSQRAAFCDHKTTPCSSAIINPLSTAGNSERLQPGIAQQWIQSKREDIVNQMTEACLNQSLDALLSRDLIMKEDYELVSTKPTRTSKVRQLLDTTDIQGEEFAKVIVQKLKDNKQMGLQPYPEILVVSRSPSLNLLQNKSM
Sequence of MARK2 (human) (Q7KZI7 whole entry, looked up): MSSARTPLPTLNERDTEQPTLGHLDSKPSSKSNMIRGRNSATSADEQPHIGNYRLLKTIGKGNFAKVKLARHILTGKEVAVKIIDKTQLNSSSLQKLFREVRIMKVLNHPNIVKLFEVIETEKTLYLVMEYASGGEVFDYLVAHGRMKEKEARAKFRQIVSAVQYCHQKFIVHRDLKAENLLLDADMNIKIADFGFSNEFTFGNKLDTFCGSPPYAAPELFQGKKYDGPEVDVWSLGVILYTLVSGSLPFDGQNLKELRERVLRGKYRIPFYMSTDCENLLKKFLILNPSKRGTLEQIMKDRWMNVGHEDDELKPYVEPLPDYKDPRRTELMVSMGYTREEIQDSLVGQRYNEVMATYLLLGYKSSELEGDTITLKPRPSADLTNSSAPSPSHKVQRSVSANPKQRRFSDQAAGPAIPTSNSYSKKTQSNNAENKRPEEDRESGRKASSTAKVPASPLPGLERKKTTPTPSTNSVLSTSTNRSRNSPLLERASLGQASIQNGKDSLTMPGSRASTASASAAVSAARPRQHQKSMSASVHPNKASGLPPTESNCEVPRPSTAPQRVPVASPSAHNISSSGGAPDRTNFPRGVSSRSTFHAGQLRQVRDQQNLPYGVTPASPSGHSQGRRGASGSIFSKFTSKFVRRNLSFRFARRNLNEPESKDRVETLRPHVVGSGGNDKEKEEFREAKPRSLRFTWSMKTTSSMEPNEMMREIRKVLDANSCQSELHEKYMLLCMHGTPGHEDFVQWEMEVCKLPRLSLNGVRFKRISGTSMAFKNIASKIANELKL
Sequence of AKT2 (human), P31751 [S474D] (P31751 whole entry S474D, looked up): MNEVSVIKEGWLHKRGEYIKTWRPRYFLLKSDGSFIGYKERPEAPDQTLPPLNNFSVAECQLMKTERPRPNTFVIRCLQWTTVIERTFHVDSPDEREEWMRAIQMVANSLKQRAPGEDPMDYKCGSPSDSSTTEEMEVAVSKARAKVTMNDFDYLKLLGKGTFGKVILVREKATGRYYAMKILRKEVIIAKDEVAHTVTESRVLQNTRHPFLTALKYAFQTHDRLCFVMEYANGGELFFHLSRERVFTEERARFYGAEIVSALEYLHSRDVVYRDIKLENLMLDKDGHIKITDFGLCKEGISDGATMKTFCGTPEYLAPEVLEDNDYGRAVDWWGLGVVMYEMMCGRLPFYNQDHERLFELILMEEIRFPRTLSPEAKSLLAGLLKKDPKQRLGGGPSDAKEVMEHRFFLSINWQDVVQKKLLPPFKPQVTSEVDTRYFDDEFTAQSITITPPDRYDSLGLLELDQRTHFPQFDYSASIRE

SMILES: COC(=O)Nc1ccc(-c2nc(N3CCOCC3)c3cnn(C4CCN(C(=O)OC)CC4)c3n2)cc1
- IC50 [1]: 15.8 nM
- per cent of control ([2]; compound 1.0 µM): 102%
- per cent of control ([2]; compound 10.0 µM): 89%
- per cent of control ([3]; compound 1.0 µM): 85%
- per cent of control ([3]; compound 10.0 µM): 89%
- per cent of control ([4]; compound 1.0 µM): 96%
- per cent of control ([4]; compound 10.0 µM): 118%
- per cent of control ([5]; compound 1.0 µM): 94%
- per cent of control ([5]; compound 10.0 µM): 72%
- kinase still bound, per cent of control [6]: 90%
- kinase still bound, per cent of control [7]: 95%
- kinase still bound, per cent of control [8]: 100%
- kinase still bound, per cent of control [9]: 100%
- kinase still bound, per cent of control [10]: 100%
- kinase still bound, per cent of control [11]: 100%
- kinase still bound, per cent of control [12]: 7.8%
- kinase still bound, per cent of control [13]: 78%
- kinase still bound, per cent of control [14]: 100%
- kinase still bound, per cent of control [15]: 86%
- kinase still bound, per cent of control [16]: 100%
- kinase still bound, per cent of control [17]: 5.4%

SMILES: CCC(=O)N1CCN(c2ccc(-n3c(=O)ccc4cnc5ccc(-c6cnc7ccccc7c6)cc5c43)cc2C(F)(F)F)CC1
- per cent of control ([2]; compound 1.0 µM): 95%
- per cent of control ([2]; compound 10.0 µM): 84%
- per cent of control ([3]; compound 1.0 µM): 76%
- per cent of control ([3]; compound 10.0 µM): 85%
- per cent of control ([4]; compound 1.0 µM): 117%
- per cent of control ([4]; compound 10.0 µM): 102%
- per cent of control ([5]; compound 10.0 µM): 64%
- kinase still bound, per cent of control [18]: 100%
- kinase still bound, per cent of control [19]: 100%
- kinase still bound, per cent of control [20]: 68%
- kinase still bound, per cent of control [21]: 60%

SMILES: COc1ccc(-c2ccc3c(N4CCOCC4)nc(N4C[C@@H](C)O[C@@H](C)C4)nc3n2)cc1CO
- per cent of control ([22]; compound 1.0 µM): 82%
- per cent of control ([22]; compound 10.0 µM): 104%
- kinase still bound, per cent of control [6]: 100%
- kinase still bound, per cent of control [7]: 100%
- kinase still bound, per cent of control [8]: 83%
- kinase still bound, per cent of control [9]: 100%
- kinase still bound, per cent of control [10]: 100%
- kinase still bound, per cent of control [11]: 100%
- kinase still bound, per cent of control [12]: 3.2%
- kinase still bound, per cent of control [13]: 23%
- kinase still bound, per cent of control [14]: 94%
- kinase still bound, per cent of control [15]: 100%
- kinase still bound, per cent of control [16]: 100%
- kinase still bound, per cent of control [17]: 2.5%
